Experimental data from patent US5498780A, “Platinum complex and malignant tumor treating drug containing the same” (SS Pharmaceutical Co., Ltd., priority 1994, dated 1996).

Assays:
[1] = 50% lethal dose by single peritoneal administration, obtained at the time of the dose setting; format: in vivo, CDF1 mice
From the text: (§1) In these tables, ILSmax means maximum ILS value (%), and corresponding dose (mg/kg) is Shown in parenthesis.

[2] = test system: murine L1210 leukemia cell; test: Antitumor effect on murine L1210 leukemia cell (increase in life-span of inoculated mice); format: in vivo, murine; male CDF1 mice; details: for ILSmax (maximum percent increase in life-span) / ILS50 (dose which shows 50% of the ILS value by 5 administrations) / dose corresponding to ILSmax: L1210, i.p. once a day for 5 days; for ILSmax (maximum percent increase in life-span): 30 days observation; for ILS50 (dose which shows 50% of the ILS value by 5 administrations): linear regression; for TI (therapeutic index, LD50 value/ILS50 value): L1210
Experimental: (§2) Murine L1210 leukemia cells (1×10^5 cells) were inoculated peritoneally into six-week-old male CDF1 mice on day 0. From the next day after the inoculation, a drug (the compound of the invention or a compound for comparison) was administered peritoneally once a day for 5 days. After 30 days of observation, the percent increase in life-span (ILS) was calculated as follows: […]
(§3) T: mean survival days of the drug-treated group
(§4) C: mean survival days of control group
as §1

[3] = test system: cisplatin-resistant murine L1210 leukemia cell (L1210/DDP); test: Antitumor effect on cisplatin-resistant murine L1210 leukemia cell (L1210/DDP); format: in vivo, murine; male CDF1 mice; details: for ILSmax (maximum percent increase in life-span) / dose corresponding to ILSmax / ILS50 (dose which shows 50% of the ILS value by 5 administrations): i.p. once a day for 5 days; for ILSmax (maximum percent increase in life-span): 30 days observation; for ILS50 (dose which shows 50% of the ILS value by 5 administrations): linear regression
Experimental: as §2, §3, §4
In these tables, ILSmax means maximum ILS value (%), and corresponding dose (mg/kg) is Shown in parenthesis. In this test, cisplatin and carboplatin were respectively tested in each test lot for accurate comparison.
Antitumor effect on cisplatin-resistant murine L1210 leukemia cell (L1210/DDP):
The test of Test Example 1 was repeated except that cisplatin-resistant murine L1210 leukemia cell (L1210/DDP) was used instead of murine L1210 leukemia cell.

[4] = test system: murine P388 leukemia cell; test: Antitumor effect on murine P388 leukemia cell; format: in vivo, murine; male CDF1 mice; details: for ILSmax (maximum percent increase in life-span) / ILS50 (dose which shows 50% of the ILS value by 5 administrations) / dose corresponding to ILSmax: P388, i.p. once a day for 5 days; for ILSmax (maximum percent increase in life-span): 30 days observation; for ILS50 (dose which shows 50% of the ILS value by 5 administrations): linear regression; for TI (therapeutic index, LD50 value/ILS50 value): P388
Experimental: as §2, §3, §4, §1
Antitumor effect on murine P388 leukemia cell:
The test of Test Example 1 was repeated except that 1×10^6 of murine P388 leukemia cells were used instead of 1×10^5 of murine L1210 leukemia cells.

SMILES	LD50 (50% lethal dose) [1] [mg/kg]	ILSmax (maximum percent increase in life-span) ([2]; Table 4 test lot) [%]	ILSmax (maximum percent increase in life-span) ([2]; Table 5 test lot) [%]	ILS50 (dose which shows 50% of the ILS value by 5 administrations) ([2]; Table 4 test lot) [mg/kg]	ILS50 (dose which shows 50% of the ILS value by 5 administrations) ([2]; Table 5 test lot) [mg/kg]	dose corresponding to ILSmax ([2]; Table 4 test lot) [mg/kg]	dose corresponding to ILSmax ([2]; Table 5 test lot) [mg/kg]	TI (therapeutic index, LD50 value/ILS50 value) ([2]; Table 4 test lot)	ILSmax (maximum percent increase in life-span) ([3]; Table 6 test lot) [%]	ILSmax (maximum percent increase in life-span) ([3]; Table 7 test lot) [%]	dose corresponding to ILSmax ([3]; Table 6 test lot) [mg/kg]	dose corresponding to ILSmax ([3]; Table 7 test lot) [mg/kg]	ILSmax (maximum percent increase in life-span) ([4]; Table 8 test lot) [%]	ILSmax (maximum percent increase in life-span) ([4]; Table 10 test lot) [%]	ILS50 (dose which shows 50% of the ILS value by 5 administrations) ([4]; Table 8 test lot) [mg/kg]	ILS50 (dose which shows 50% of the ILS value by 5 administrations) ([4]; Table 10 test lot) [mg/kg]	dose corresponding to ILSmax ([4]; Table 8 test lot) [mg/kg]	dose corresponding to ILSmax ([4]; Table 10 test lot) [mg/kg]	TI (therapeutic index, LD50 value/ILS50 value) ([4]; Table 8 test lot)	TI (therapeutic index, LD50 value/ILS50 value) ([4]; Table 10 test lot)	further results
N.N.O=C([O-])C1(C(=O)[O-])CCC1.[Pt+2] [Carboplatin, carboplatin, reference compound]	245.0	50.6	72.5	41.0	33.9	64.0	64.0	6.0	8.5	14.3	16.0	64.0	73.1	57.3	10.5	13.8	16.0	32.0	23.3	17.8	TI (therapeutic index, LD50 value/ILS50 value) ([2]; Table 5 test lot): 7.2; ILSmax (maximum percent increase in life-span) ([4]; Table 9 test lot): 79.8%; ILS50 (dose which shows 50% of the ILS value by 5 administrations) ([4]; Table 9 test lot): 12.1 mg/kg; dose corresponding to ILSmax ([4]; Table 9 test lot): 32.0 mg/kg; TI (therapeutic index, LD50 value/ILS50 value) ([4]; Table 9 test lot): 20.2
N.NC1CCCCC1.[Cl][Pt][Cl] [Comparative drug A, cis-dichloroammine cyclohexylamineplatinum(II), reference compound]	31.3	97.6		< 1.0		8.0		> 31.3	> 157.5		1.0		101.9		< 1.0		4.0		> 31.3		TI (therapeutic index, LD50 value/ILS50 value) ([3]; Table 6 test lot): > 31.3; ILS50 (dose which shows 50% of the ILS value by 5 administrations) ([3]; Table 6 test lot): < 1.0 mg/kg
CCCO[NH][Pt]1([NH2])[O]C(=O)C2(CCC2)C(=O)[O]1 [Compound No. 16, (1,1-cyclobutane dicarboxylate)ammine (O-propylhydroxylamine)platinum(II)]	176.8													72.7		8.2		8.0		21.6	
CCON.N.O=C1[O][Pt][O]C(=O)C12CCC2 [Compound No. 15, (1,1-cyclobutane dicarboxylate)ammine (O-ethylhydroxylamine)platinum(II)]	176.8													93.6		8.2		32.0		21.6	
CCON.N.[Cl][Pt][Cl] [Compound No. 5, cis-dichloroammine (O-ethylhydroxylamine)platinum(II)]	22.1	> 109.4		0.9		4.0		24.6	> 152.8		2.0		> 129.6		0.6		4.0		36.8		TI (therapeutic index, LD50 value/ILS50 value) ([3]; Table 6 test lot): 27.6; ILS50 (dose which shows 50% of the ILS value by 5 administrations) ([3]; Table 6 test lot): 0.8 mg/kg
CC(C)(C)ON.N.[Cl][Pt][Cl] [Compound No. 7, cis-dichloroammine (O-tert-butylhydroxylamine)platinum(II)]	22.1		> 181.3		1.5		8.0			> 206.1		1.0									TI (therapeutic index, LD50 value/ILS50 value) ([2]; Table 5 test lot): 14.7; TI (therapeutic index, LD50 value/ILS50 value) ([3]; Table 7 test lot): > 22.1; ILS50 (dose which shows 50% of the ILS value by 5 administrations) ([3]; Table 7 test lot): < 1.0 mg/kg; ILSmax (maximum percent increase in life-span) ([4]; Table 9 test lot): 92.3%; ILS50 (dose which shows 50% of the ILS value by 5 administrations) ([4]; Table 9 test lot): < 1.0 mg/kg; dose corresponding to ILSmax ([4]; Table 9 test lot): 2.0 mg/kg; TI (therapeutic index, LD50 value/ILS50 value) ([4]; Table 9 test lot): > 22.1
N.ONC1CCCCC1.[Cl][Pt][Cl] [Compound No. 4, cis-dichloroammine (N-cyclohexylhydroxylamine)platinum(II)]	88.2	> 120.0		2.1		8.0		42.0	> 183.0		2.0		108.3		1.1		16.0		80.2		TI (therapeutic index, LD50 value/ILS50 value) ([3]; Table 6 test lot): > 88.2; ILS50 (dose which shows 50% of the ILS value by 5 administrations) ([3]; Table 6 test lot): < 1.0 mg/kg
CC(C)(C)O[NH][Pt]1([NH2])[O]C(=O)C2(CCC2)C(=O)[O]1 [Compound No. 17, (1,1-cyclobutane dicarboxylate)ammine (O-tert-butylhydroxylamine)platinum(II)]	250.0													72.7		12.4		32.0		20.2	
CCO[NH][Pt]([Cl])([Cl])[NH]C(C)C [Compound No. 12, cis-dichloro(isopropylamine) (O-ethylhydroxylamine)platinum(II)]	22.1		102.5		1.5		8.0			> 206.1		2.0									TI (therapeutic index, LD50 value/ILS50 value) ([2]; Table 5 test lot): 14.7; TI (therapeutic index, LD50 value/ILS50 value) ([3]; Table 7 test lot): > 22.1; ILS50 (dose which shows 50% of the ILS value by 5 administrations) ([3]; Table 7 test lot): < 1.0 mg/kg
CON.N.[Cl][Pt][Cl] [Compound No. 2, cis-dichloroammine (O-methylhydroxylamine)platinum(II)]	22.1												126.9		< 0.5		4.0		> 44.2		
N.N.[Cl][Pt][Cl] [Cisplatin, cisplatin, reference compound]		88.2	90.0	1.3	1.1	4.0	4.0		0.9	5.1	4.0	4.0	> 120.4	> 120.9	< 0.5	< 0.5	4.0	4.0			ILSmax (maximum percent increase in life-span) ([4]; Table 9 test lot): > 156.7%; ILS50 (dose which shows 50% of the ILS value by 5 administrations) ([4]; Table 9 test lot): < 0.5 mg/kg; dose corresponding to ILSmax ([4]; Table 9 test lot): 4.0 mg/kg
CNO.N.[Cl][Pt][Cl] [Compound No. 1, cis-dichloroammine (N-methylhydroxylamine)platinum(II)]	15.6												> 136.1		< 0.5		4.0		> 31.2		
